Experiments:
[1] = test system: actin cytoskeleton of MDA-MB-231, BT474 and MCF10A cells; assay: Actin cytoskeleton confocal imaging after pulsed AC magnetic field; format: cell-based, human; conditions: cancerous cells, CD alone (100 nM)
Description: For confocal studies, MDA-MB-231, BT474 and MCF10A cells were plated on Lab-Tek II Chamber slides at a concentration of 1×10^5 cells/well and allowed to grow overnight. The cells were then treated with 0.1 mg/mL Alexa Fluor® 647-PAA-P85-MNP for 24 h followed by thorough washing with acid saline and replacement with complete media. The cells were incubated with 100 nM CD for 1 h to enact cytoskeletal damage in a nonlethal capacity. After washing, the cells were exposed to the pulsed AC magnetic field (50 Hz, 50 kA/m) (10 min on, 5 min off, total exposure 30 min). Appropriate controls included cells not exposed to the magnetic field and untreated cells. Cells were then incubated at 37° C. for 24 h, fixed using 4% paraformaldehyde and permeabilized using 0.5% Triton-X 100. Fixed cells were stained with ActinGreen 488 (Life Technologies, Carlsbad, Calif.), a phalloidin-based actin stain and Hoechst 33342. Images were acquired using a Zeiss CLSM 710 Spectral Confocal Laser Scanning Microscope with the 63×/1.4 Oil Plan Apo lens.

[2] = test system: lysosomes of MDA-MB-231, BT474 and MCF10A cells; assay: Lysosomal membrane permeabilization, acridine orange assay; format: cell-based, human; conditions: positive control, 150 μM, three hours, no field
Description: MDA-MB-231, BT474 and MCF10A cells were seeded at 1×10^5 cells/well in 8-well Lab-Tek II Chamber slides. Cells were allowed to adhere for several days and were treated with PAA-P85-MNPs at a concentration of 0.1 mg/mL. After 24 h, the cells were washed and then exposed to an AC magnetic field (50 Hz, 50 kA/m) using the pulsed exposure regime for a total of 30 min. Three hours post exposure, cells were treated for 15 min with 10 μg/mL acridine orange stain. The cells were washed 3× with PBS and kept in complete media for imaging. Positive control cells were treated with 150 μM hydrogen peroxide for 3 h followed by thorough washing and staining with acridine orange. Live cell images were acquired using a Zeiss CLSM 710 Spectral Confocal Laser Scanning Microscope with the 63×/1.4 Oil Plan Apo lens.

Row | Compound | actin cytoskeleton structure [1] | lysosomal membrane permeabilization (acridine orange) [2]
1 | C=C1[C@@H](C)[C@H]2[C@H](Cc3ccccc3)NC(=O)[C@]23[C@H](OC(C)=O)/C=C/[C@@](C)(O)C(=O)[C@@H](C)C/C=C/[C@H]3[C@@H]1O [CD, Cytochalasin D] | No significant differences in the cytoskeleton structure | –
2 | OO [hydrogen peroxide] | – | loss of punctuate red fluorescence

Reference: patent US20190054186A1, “Magnetic Nanoparticle-Polymer Complexes and uses Thereof” (The University of North Carolina at Chapel Hill, priority 2016, published 2019)
